In US6429291B1, “Hyaluronan receptor protein” (priority 1994, dated 2002):

Columns and labels:
C3 fibroblasts = assay: Cell locomotion assay, timelapse image analysis of C3 fibroblasts; assay type: cell-based, murine
Protocol: For motility experiments, 10^5 cells were subcultured into 25 cm^2 tissue culture flasks (Corning), and maintained for 12 h as above. The medium was then aspirated, cells were rinsed with Hanks Balanced Salt Solution (HBSS) (Gibco) and fresh, serum-free α-MEM containing 4.0 μg/ml transferrin (Gibco) and 2.0 μg/ml insulin (Sigma) (defined medium) was added to the flasks.
Cell locomotion was recorded using a computerized timelapse analysis system (Image 1, Universal Imaging Corporation, Westchester, Pa.) that measures nuclear displacement. During the filming period, cells were maintained at 37° C. in defined-media at physiological pH.
A 10 amino acid peptide corresponding to one of the HA binding domains of RHAMM, peptide^aa423-432 (Yang et al., 1993), was synthesised and added at various concentrations (0,0.1, 1.0, 5.0, 10.0 and 50.0 ng/ml) to 70% confluent C3 fibroblasts. Cell locomotion was monitored by image analysis for 2 h from the addition of the peptide. A scrambled peptide was used as control.
RHAMM-GST fusion protein prepared and purified as described in (b) above was added at concentrations of 1 pg/ml, 1 ng/ml, 1 μg/ml and 1 mg/ml to 70% confluent C3 cultures and cell locomotion was monitored by image analysis for 2 h from protein addition as described in Example 5.
For each experiment, 30 cells were tracked every 10 min for a 1 hr period.
RHAMM-GST fusion protein, as described in (d) above, and deleted/mutated RHAMM-GST fusion protein, as described in (h) above were added at 5 ng/ml to subconfluent cultures of C3 cells and cell locomotion was monitored by image analysis for 2 h from protein addition as described in Example 5.

[1] = HA binding transblot assay with biotinylated HA
Protocol: For the HA-binding assay, cell lysates were separated on SDS-PAGE, transblotted onto nitrocellulose membranes, then blots were incubated with biotinylated HA instead of primary antibody (Yang et al., 1993). Streptavidin-peroxidase conjugate (Sigma) was used as a second antibody, and blots were processed as above.

C3 cells [2] = assay: Cell cycle analysis by flow cytometry; assay type: cell-based, murine; conditions: serum starved, then serum stimulated; 5 μg/ml GST-RHAMM
Protocol: For cell cycle analysis, cells of the ras-transformed fibroblast cell line C3 were harvested and fixed with 70% ethanol. The fixed cells were denatured by 2N HCl containing 0.5% Triton X-100 at RT for 30 min and then neutralized by treatment with 0.1 M Na2B4O7, pH 8.5. Total DNA content was detected by propidium iodide staining. The stained cells were analyzed by flow cytometry using a Coulter Electronics Inc. EPICS 753 cell sorter and PARA1 cell cycle analysis software.

C3 cells [3] = assay: Growth analysis (cell density assay); assay type: cell-based, murine
Protocol: Cell density assay was carried out by seeding 5×10^4 cells in 60 mm dishes. Cells were cultured in DMEM supplemented with 10% FCS. At each point, cells were harvested by trypsinization and cell concentrations were determined by counting cells by trypan blue exclusion method.

p34^cdc2 = assay: Western blot of p34^cdc2 protein expression; assay type: cell-based, murine
Protocol: For Western blot analysis, C3 cells in 100 mm dishes were washed 2× in PBS and then lysed in 0.25 ml ice cold buffer containing 50 mM β-glycerophosphate (pH 7.3), 1% Nonidet p-40, 10 mM NaF, 1% aprotinin and 1 mM Sodium Vanadate. The lysates were centrifused at 30,000 g for 20 min at 4° C. Protein concentration was determined by Biorad protein assay kit. Proteins were resolved on 10% SDS-polyacrylamide gels and transferred to nitrocellulose membranes in a Tris-Cl buffer containing 25 mM Tris, 192 mM Glycine and 20% (v/v) methanol, pH 8.3 at 100V for 1 hour at 4° C. Filters were incubated with antibody to p34^cdc2 (1:5000 dilution of polyclonal rabbits antiserum raised against the C-terminal peptide (LDNQIKKM) (SEQ ID NO:58) of Human […] protein) and developed with horseradish peroxidase-conjugated goat antibody to rabbit immunoglobulin G (sigma). Blotting was visualized by enhanced chomilumineacence Western blotting system (Amersham) following manufacturer's instruction.

cdc2 mRNA = cdc2 mRNA Northern blot, nuclear run-on and mRNA stability; assay type: cell-based, murine; conditions: actinomycin D 20 μg/ml for stability
Protocol: Total cellular RNA was extracted by a rapid RNA isolation method using Trizol reagent (GIBCO) as per manufacturer's instructions. For half-life measurements, transcription was inhibited by addition of 20 ug/ml actinomycin D. RNA was isolated at different times and analyzed for cdc2 gene expression. 20 ug of total cellular RNA was electrophoresed through 1% formamide-agarose gels and blotted onto Nytran membranes. The blots were prehybridized and probed with random primer 32p-labelled murine cdc2 cDNA (Paul Nurse). Loading of RNA was determined by probing with glyceraldehyde-3-phosphate dehyrogenase (GAPDH) cDNA. Autoradiography was done by Phosphoimager SF (Molecular Dynamics) using storage phosphor imaging.
Nuclear run-on assay was performed using 32P-labelled RNA to probe filter-bound cdc2 and GAPDH single strand cDNA inserts. Quantification of transcription was determined by scanning phosphor images using Multiquant software program (Molecular Dynamics).

C3 cells [4] = assay: Tumorigenicity of treated C3 cells injected subcutaneously; assay type: in vivo, syngeneic C3H/HeN mice
Protocol: (§1) C3 cells were serum starved, then cultured in presence of serum and GST or GST-HM for 48-hours and released from the substratum in Hanks. For assessing the tumorigenicity of the treated cells, 3×10^5 viable cells were injected subcutaneously into the right hind leg of syngeneic C3H/HeN Mice. The mice were maintained for 6-8 weeks after which tumors were removed, weighed and pieces processed for histology using conventional paraffin embedding techniques. For experimental metastasis assays, 4×10^3 treated cells were injected into the tail vein of syngeneic C3H/HeN mice. The mice were maintained for 16-18 days, euthanased and their lungs were stained by Boulin solution (picric acid, formaldehyde and acetic acid [15:5.:1]), removed and metastatic foci were counted under dissecting microscope.

C3 cells [5] = assay: Experimental metastasis assay of treated C3 cells (tail vein); assay type: in vivo, syngeneic C3H/HeN mice
Protocol: as §1, with “For experimental metastasis assays, 4×10^3 treated cells were injected into the tail vein of syngeneic C3H/HeN mice.” left out

[6] = treated cells that did form tumours

Q: For “RHAMM-GST fusion protein: RHAMM II cDNA cloned into pGEX-2T and expressed as soluble glutathione S-transferase-RHAMM fusion protein”, which “concentration at which cell locomotion was significantly inhibited” value (C3 fibroblasts; 70% confluent C3, 2 h) is on record?
A: ≥ 1 ng/mL

Q: What about the “effect on cell locomotion” value (C3 fibroblasts; C3 fibroblasts, result in words) of the same substance?
A: effective inhibitor of cell motility

Q: And the reduction of locomotion (C3 fibroblasts; at 1 ng/ml, p<0.0001)?
A: 40%

Q: What about the reduction in locomotion (C3 fibroblasts; concentrations as low as 1 ng/ml) of the same substance?
A: 3.5 fold

Q: What about the “binding to biotinylated HA” value [1] of the same substance?
A: showed binding to biotinylated HA

Q: What about the “effect on cell cycle” value (C3 cells [2]) of the same substance?
A: arrested and accumulated in G2/M phase

Q: And the “effect on cell proliferation” value (C3 cells [3]; 5 μg/ml GST-RHAMM)?
A: decrease in cell proliferation

Q: What about the “fate of treated cells” value (C3 cells [3]; RHAMM-treated C3 cells) of the same substance?
A: proceeded to cell death

Q: And the “p34^cdc2 expression” value (p34^cdc2; 10 μg/ml)?
A: greatly reduced

Q: What about the “effect on p34^cdc2 expression” value (p34^cdc2; range of concentrations) of the same substance?
A: dose dependent inhibition

Q: And the “effect on cdc2 mRNA” value (cdc2 mRNA)?
A: degradation of cdc2 mRNA without alteration of transcription

Q: What about the “Tumorigenicity, Frequency” value (C3 cells [4]; C3 cells treated 48 hours before s.c. injection of 3 × 10^5 cells) of the same substance?
A: 2/4

Q: And the “Tumorigenicity, Latency” value (C3 cells [4]; s.c. injection of 3 × 10^5 treated cells)?
A: 22 days

Q: What about the Tumorigenicity, Tumor size Day 25 (C3 cells [4]; s.c. injection of 3 × 10^5 treated cells, Day 25) of the same substance?
A: 90 ± 0.7 mm²

Q: What about the “latency compared to controls” value (C3 cells [4]; [6]) of the same substance?
A: increased

Q: And the “ultimate tumour size compared to controls” value (C3 cells [4]; [6])?
A: reduced

Q: And the “reduction of incidence of tumours” value (C3 cells [4]; treatment of C3 cells prior to inoculation)?
A: 50%

Q: What about the “Expt. Metastases, Frequency” value (C3 cells [5]; i.v. injection of 4 × 10^5 treated cells) of the same substance?
A: 3/4

Q: And the “Expt. Metastases, No.” value (C3 cells [5]; i.v. injection of 4 × 10^5 treated cells, lung foci)?
A: <10

Q: What about the “metastatic capability of C3 cells” value (C3 cells [5]; pre-treatment of cells) of the same substance?
A: greatly reduced the metastatic capability
